28 molecules from patent publication US20090105305A1, “Therapeutic Agents - 550” (AstraZeneca AB, priority 2006, published 2009) can be followed below.

The structures appear in SMILES notation.

One assay deals with T1, human Fatty Acid Synthase (Homo sapiens, UniProt P49327).
T1 construct: made in house
T1 sequence (P49327 whole entry): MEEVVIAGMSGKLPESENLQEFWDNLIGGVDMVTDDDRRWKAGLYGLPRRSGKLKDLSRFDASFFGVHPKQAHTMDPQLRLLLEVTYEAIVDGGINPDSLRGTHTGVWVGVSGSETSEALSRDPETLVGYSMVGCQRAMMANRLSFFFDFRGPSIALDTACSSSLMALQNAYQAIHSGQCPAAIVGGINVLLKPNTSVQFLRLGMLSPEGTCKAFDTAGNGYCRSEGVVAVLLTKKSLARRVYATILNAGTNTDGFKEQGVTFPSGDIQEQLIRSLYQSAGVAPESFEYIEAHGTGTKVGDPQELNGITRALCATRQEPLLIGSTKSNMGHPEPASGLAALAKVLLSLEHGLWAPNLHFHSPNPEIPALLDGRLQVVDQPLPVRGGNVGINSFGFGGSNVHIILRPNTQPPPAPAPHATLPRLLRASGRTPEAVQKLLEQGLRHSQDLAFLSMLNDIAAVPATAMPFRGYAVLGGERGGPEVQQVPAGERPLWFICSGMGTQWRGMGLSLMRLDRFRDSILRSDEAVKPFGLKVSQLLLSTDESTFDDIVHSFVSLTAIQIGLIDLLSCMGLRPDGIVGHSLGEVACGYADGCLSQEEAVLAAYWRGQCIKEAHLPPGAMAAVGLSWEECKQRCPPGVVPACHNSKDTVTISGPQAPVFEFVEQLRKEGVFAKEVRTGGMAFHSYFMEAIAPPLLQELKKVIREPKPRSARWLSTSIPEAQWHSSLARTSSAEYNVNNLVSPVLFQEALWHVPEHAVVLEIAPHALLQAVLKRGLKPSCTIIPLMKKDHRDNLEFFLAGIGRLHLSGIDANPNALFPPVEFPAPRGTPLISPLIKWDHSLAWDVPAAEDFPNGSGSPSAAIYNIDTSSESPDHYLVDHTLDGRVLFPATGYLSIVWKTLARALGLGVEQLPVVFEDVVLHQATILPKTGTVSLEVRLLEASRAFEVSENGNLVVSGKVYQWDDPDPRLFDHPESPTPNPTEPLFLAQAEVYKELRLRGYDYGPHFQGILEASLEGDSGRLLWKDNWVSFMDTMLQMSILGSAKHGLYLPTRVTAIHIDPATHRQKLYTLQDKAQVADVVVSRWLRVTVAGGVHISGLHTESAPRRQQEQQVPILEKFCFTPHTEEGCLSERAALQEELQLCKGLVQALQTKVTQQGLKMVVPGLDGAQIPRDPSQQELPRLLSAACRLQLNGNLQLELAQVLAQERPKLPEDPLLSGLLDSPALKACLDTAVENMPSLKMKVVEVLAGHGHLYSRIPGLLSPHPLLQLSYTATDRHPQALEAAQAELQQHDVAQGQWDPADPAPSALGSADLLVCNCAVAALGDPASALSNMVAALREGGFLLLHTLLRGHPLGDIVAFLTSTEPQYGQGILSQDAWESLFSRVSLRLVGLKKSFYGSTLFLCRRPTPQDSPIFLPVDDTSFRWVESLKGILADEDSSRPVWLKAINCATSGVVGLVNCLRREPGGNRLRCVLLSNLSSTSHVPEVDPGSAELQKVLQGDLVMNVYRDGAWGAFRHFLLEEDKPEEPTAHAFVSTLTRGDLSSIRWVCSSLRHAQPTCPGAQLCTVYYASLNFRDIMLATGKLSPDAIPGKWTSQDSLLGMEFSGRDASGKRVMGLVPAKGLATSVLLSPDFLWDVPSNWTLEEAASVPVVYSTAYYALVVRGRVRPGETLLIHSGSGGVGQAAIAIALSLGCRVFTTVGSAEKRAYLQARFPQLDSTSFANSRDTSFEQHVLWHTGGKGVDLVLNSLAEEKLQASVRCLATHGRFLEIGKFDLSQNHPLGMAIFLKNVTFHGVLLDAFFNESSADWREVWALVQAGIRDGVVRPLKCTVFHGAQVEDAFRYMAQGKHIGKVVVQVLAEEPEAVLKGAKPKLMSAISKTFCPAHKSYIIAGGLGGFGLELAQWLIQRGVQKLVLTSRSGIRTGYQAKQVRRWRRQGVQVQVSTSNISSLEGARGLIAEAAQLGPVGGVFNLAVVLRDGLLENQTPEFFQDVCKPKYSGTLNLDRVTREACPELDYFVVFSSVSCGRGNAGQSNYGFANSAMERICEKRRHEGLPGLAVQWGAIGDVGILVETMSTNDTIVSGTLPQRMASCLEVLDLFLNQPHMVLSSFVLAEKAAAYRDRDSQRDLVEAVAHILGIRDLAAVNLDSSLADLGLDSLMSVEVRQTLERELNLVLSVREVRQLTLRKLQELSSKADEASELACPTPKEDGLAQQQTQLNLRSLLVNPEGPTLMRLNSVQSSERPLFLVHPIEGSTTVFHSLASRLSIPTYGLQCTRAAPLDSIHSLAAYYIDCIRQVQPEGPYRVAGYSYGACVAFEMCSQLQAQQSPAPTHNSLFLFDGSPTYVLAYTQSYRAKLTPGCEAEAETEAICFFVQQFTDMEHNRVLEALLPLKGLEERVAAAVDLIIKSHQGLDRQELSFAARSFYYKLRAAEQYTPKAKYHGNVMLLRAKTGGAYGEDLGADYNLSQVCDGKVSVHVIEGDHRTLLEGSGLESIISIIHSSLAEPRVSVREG
The assay can be described thus: Human FAS enzyme assay (decrease in NADPH fluorescence). It counts as biochemical. The settings on record: % inhibition at a concentration of 100 micromolar. The text has this:
The compounds of the present invention are Fatty Acid Synthase inhibitors. […] Human and Rat FAS Enzyme Assay.
Fatty acid synthase is an enzyme complex that harbours seven enzymatic activities catalysing the reductive synthesis of long chain fatty acids from acetyl CoA and malonyl CoA to palmitate. When acetyl CoA and malonyl CoA are forming palmitate NADPH is consumed forming NADP. Since NADPH is fluorescent but not NADP the reaction can be measured by analysing the decrease in fluorescence.
Compounds were added to a black 384 well plate (Matrix) in a volume of 5 μl consisting of 20% DMSO and 80% Tris buffer pH 7.5, at a top concentration of 1 mM. NADPH, 30 μl of 166.6 μM, formulated in assay buffer (0.1M Tris ph7.5, 0.1 mM EDTA, 1 mM glutathione, 0.05% BSA), was then added to all of the wells of the plate. Fatty acid synthase Human or rat enzyme (0.4 μg, produced in house), dissolved in 20 mM Tris/HCl pH 7.5, 5 mM BOG, 1 mM TCEP, 10% glycerol, 1 mM EDTA, 150 mM NaCl, was then added to the plate in a volume of […]. Enzyme was added to all but the last two columns of the plate, to which, 10 μl of assay buffer was added (0.1M Tris ph7.5, 0.1 mM EDTA, 1 mM glutathione, 0.05% BSA) to provide a no enzyme assay control. Following a 15-minute incubation period, at room temperature, the plates were read on an Envision plate reader using 340 nm excitation and 460 nm emission filters. This served as a time zero background read. Substrates (an equal mix of both malonyl and acetyl CoA) were then added to the plates in a total volume of 5 μl. The concentrations of malonyl and acetyl CoA in the mixture were 500 μM and 150 μM respectively. Both were prepared as 10 mM stock solutions in distilled water and were subsequently diluted to working concentrations in assay buffer. Plates were then incubated for a further 60 minutes, at room temperature, before being read again on the Envision reader using the same parameters as previously used. The data was analysed by subtracting the background time zero data from that generated following the final 60 minute incubate and the percent inhibition compared to the maximum and minimum assay controls was determined. Sigmoid curves were fitted using Origin 7.5 Client software and IC50 values were determined.
In turn, `CCn1ncc(S(=O)(=O)Nc2cc(C(=O)N3CCC(c4ccc(C#N)cc4)CC3)ccc2C)c1C` [Example 142, N-[5-[4-(4-cyanophenyl)piperidine-1-carbonyl]-2-methyl-phenyl]-1-ethyl-5-methyl-pyrazole-4-sulfonamide] displayed an inhibition at 100 µM of 98%.
With `Cc1ccc(C(=O)N2CCC(c3ccc(C#N)cc3)CC2)cc1NS(=O)(=O)CCCN(C)C` [Example 74, N-[5-[4-(4-cyanophenyl)piperidine-1-carbonyl]-2-methyl-phenyl]-3-dimethylamino-propane-1-sulfonamide], the inhibition at 100 µM is 95%.
Same read-out and setting: next, `COc1cc(C2CCN(C(=O)c3ccc(C)c(NS(C)(=O)=O)c3)CC2)ccc1C#N` [Example 178, N-[5-[4-(4-cyano-3-methoxyphenyl)piperidine-1-carbonyl]-2-methylphenyl]methanesulfonamide]: 81%; `Cc1ccc(C(=O)N2CCC(c3ccc(C#N)cc3)CC2)cc1NS(=O)(=O)c1cnn(C)c1` [Example 145, N-[5-[4-(4-cyanophenyl)piperidine-1-carbonyl]-2-methyl-phenyl]-1-methyl-pyrazole-4-sulfonamide]: 97%; `Cc1ccc(C(=O)N2CCC(c3ccc(C#N)cc3)CC2)cc1NS(=O)(=O)CCCN` [Example 126, 3-amino-N-[5-[4-(4-cyanophenyl)piperidine-1-carbonyl]-2-methyl-phenyl]propane-1-sulfonamide]: 87%.
The molecule `Cc1ccc(C(=O)N2CCC(c3ccc(C#N)cc3)CC2)cc1NS(=O)(=O)c1cnc(C)n1C` [Example 114, N-[5-[4-(4-cyanophenyl)piperidine-1-carbonyl]-2-methyl-phenyl]-2,3-dimethyl-imidazole-4-sulfonamide] had an inhibition at 100 µM of 85%.
The same measure, in the same setting: next, `CC(=O)N1CCC(S(=O)(=O)Nc2cc(C(=O)N3CCC(c4ccc(C#N)cc4)CC3)ccc2C)CC1` [Example 118, 1-acetyl-N-[5-[4-(4-cyanophenyl)piperidine-1-carbonyl]-2-methyl-phenyl]piperidine-4-sulfonamide]: 85%; `Cc1ccc(C(=O)N2CCC(c3ccc(Cl)cc3)CC2)cc1NS(=O)(=O)C1CCS(=O)(=O)C1` (stereo not shown) [Example 216, N-[5-[4-(4-chlorophenyl)piperidine-1-carbonyl]-2-methylphenyl]-1,1-dioxothiolane-3-sulfonamide]: 89%; `Cc1ccc(C(=O)N2CCC(O)(c3ccc(C(F)(F)F)cc3)CC2)cc1NS(C)(=O)=O` [Example 215, N-[5-[4-hydroxy-4-[4-(trifluoromethyl)phenyl]piperidine-1-carbonyl]-2-methylphenyl]methanesulfonamide]: 56%.
Same read-out and setting: next, `COCCNc1ccc(S(=O)(=O)Nc2cc(C(=O)N3CCC(c4ccc(C#N)cc4)CC3)ccc2C)cn1` [Example 103, N-[5-[4-(4-cyanophenyl)piperidine-1-carbonyl]-2-methyl-phenyl]-6-(2-methoxyethylamino)pyridine-3-sulfonamide]: 98%; `Cc1ccc(C(=O)N2CCC(c3ccc(C#N)cc3)CC2)cc1NS(=O)(=O)CC(=O)O` [Example 130, 2-[[5-[4-(4-cyanophenyl)piperidine-1-carbonyl]-2-methyl-phenyl]sulfamoyl]acetic acid]: 77%.
Still for that read-out and setting: as for `Cc1ccc(C(=O)N2CCC(c3ccc(C#N)c(F)c3)CC2)cc1NS(C)(=O)=O` [Example 179, N-[5-[4-(4-cyano-3-fluorophenyl)piperidine-1-carbonyl]-2-methylphenyl]methanesulfonamide], the figure is 85%; as for `Cc1ccc(C(=O)N2CCC(c3ccc(C#N)cc3)CC2)cc1NS(=O)(=O)C(C)CO` (stereo not shown) [Example 138, N-[5-[4-(4-cyanophenyl)piperidine-1-carbonyl]-2-methyl-phenyl]-1-hydroxy-propane-2-sulfonamide], 100%; as for `Cc1ccc(C(=O)N2CCC(c3ccc(C#N)cc3)CC2)cc1NS(=O)(=O)Cc1ccc(F)cc1F` [Example 61, N-[5-[4-(4-cyanophenyl)piperidine-1-carbonyl]-2-methyl-phenyl]-1-(2,4-difluorophenyl)methanesulfonamide], 93%.
In the case of `CC(=O)Nc1ccc(S(=O)(=O)Nc2ccc(C)c(C(=O)N3CCC(c4ccc(C#N)cc4)CC3)c2)cc1` [Example 48, N-[4-[[3-[4-(4-cyanophenyl)piperidine-1-carbonyl]-4-methyl-phenyl]sulfamoyl]phenyl]acetamide], the inhibition at 100 µM is 84%.
Same read-out and setting: as for `Cc1ccc(C(=O)N2CCC(c3ccc(C#N)cc3)CC2)cc1NS(=O)(=O)CS(C)(=O)=O` [Example 195, N-[5-[4-(4-cyanophenyl)piperidine-1-carbonyl]-2-methylphenyl]-1-methylsulfonyl-methanesulfonamide], the figure is 72%; as for `Cc1ccc(C(=O)N2CCC(c3ccc(C#N)cc3)CC2)cc1NS(=O)(=O)C(C)C` [Example 128, N-[5-[4-(4-cyanophenyl)piperidine-1-carbonyl]-2-methyl-phenyl]propane-2-sulfonamide], 96%; as for `Cc1ccc(C(=O)N2CCC(c3ccc(OS(C)(=O)=O)cc3)CC2)cc1NS(C)(=O)=O` [Example 185, [4-[1-(3-methanesulfonamido-4-methylbenzoyl)piperidin-4-yl]phenyl]methanesulfonate], 80%.
The same measure, in the same setting: as for `Cc1ccc(NS(=O)(=O)CCCCl)cc1C(=O)N1CCC(c2ccc(C#N)cc2)CC1` [Example 34, 3-chloro-N-[3-[4-(4-cyanophenyl)piperidine-1-carbonyl]-4-methyl-phenyl]propane-1-sulfonamide], the figure is 89%; as for `Cc1ccc(C(=O)N2CCC(c3ccc(C#N)cc3)CC2)cc1NS(=O)(=O)c1cccc(C(=O)N2CCOCC2)c1` [Example 97, N-[5-[4-(4-cyanophenyl)piperidine-1-carbonyl]-2-methyl-phenyl]-3-(morpholine-4-carbonyl)benzenesulfonamide], 88%.
On the same count and under the same terms, as for `Cc1ccc(C(=O)N2CCC(c3ccc(C#N)cc3)CC2)cc1NS(=O)(=O)C1CCN(S(=O)(=O)C(C)C)CC1` [Example 119, N-[5-[4-(4-cyanophenyl)piperidine-1-carbonyl]-2-methyl-phenyl]-1-propan-2-ylsulfonyl-piperidine-4-sulfonamide], the figure is 94%.
As for `Cc1cc(C)c(C(=O)N2CCC(c3ccc(C#N)cc3)CC2)cc1NS(=O)(=O)Cc1ccccc1` [Example 29, N-[5-[4-(4-cyanophenyl)piperidine-1-carbonyl]-2,4-dimethyl-phenyl]-1-phenyl-methanesulfonamide], the inhibition at 100 µM was found to be 93%.
On the same count and under the same terms, as for `Cc1ccc(C(=O)N2CCC(c3ccc(-c4nnco4)cc3)CC2)cc1NS(C)(=O)=O` [Example 168, N-[2-methyl-5-[4-[4-(1,3,4-oxadiazol-2-yl)phenyl]piperidine-1-carbonyl]phenyl]methanesulfonamide], the figure is 75%.

Staying with this assay, now noted: compounds excluded from the claims by proviso.
With `Cc1ccc(C(=O)N2CCC(O)(c3ccc(Cl)cc3)CC2)cc1NS(C)(=O)=O` [N-[5-[4-(4-chlorophenyl)-4-hydroxypiperidine-1-carbonyl]-2-methylphenyl]methanesulfonamide], the “IC50s in the range of about 0.001 μM to about 30 μM” value is “do not have IC50s in the range of about 0.001 μM to about 30 μM”.
On the same count and under the same terms, next, `Cc1ccc(C(=O)N2CCC(c3ccc(CC(=O)O)cc3)CC2)cc1NS(C)(=O)=O` [2-[4-[1-(3-methanesulfonamido-4-methylbenzoyl)piperidin-4-yl]phenyl]acetic acid]: “do not have IC50s in the range of about 0.001 μM to about 30 μM”.
The same measure, in the same setting: as for `Cc1ccc(C(=O)N2CCC(c3ccc(CNC(=O)C(C)(C)O)cc3)CC2)cc1NS(C)(=O)=O` [2-hydroxy-N-[[4-[1-(3-methanesulfonamido-4-methylbenzoyl)piperidin-4-yl]phenyl]methyl]-2-methylpropanamide], the entry is “do not have IC50s in the range of about 0.001 μM to about 30 μM”; as for `COc1ccccc1C1CCN(C(=O)c2ccc(C)c(NS(C)(=O)=O)c2)CC1` [N-[5-[4-(2-methoxyphenyl)piperidine-1-carbonyl]-2-methylphenyl]methanesulfonamide], “do not have IC50s in the range of about 0.001 μM to about 30 μM”.

The assay is the same for the next values; noted with them: unit inferred.
`Cc1ccc(C(=O)N2CCC(c3ccc(CNS(=O)(=O)CC(=O)O)cc3)CC2)cc1NS(C)(=O)=O` [Example 253, 2-[[4-[1-(3-methanesulfonamido-4-methylbenzoyl)piperidin-4-yl]phenyl]methylsulfamoyl]acetic acid] had an IC50 of 12.7 µM.

Usually inhibition stands for the relative decrease from the control value, in per cent. In general, IC50 refers to the midpoint of a concentration-inhibition curve. A lower IC50 goes with greater potency in that assay.
